Source: PMC5829242, “Chiral DOTA chelators as an improved platform for biomedical imaging and therapy applications” (Nature Communications, 2018)
Like-named read-outs stand apart in the source and are kept apart here.

What was measured:
[1] = cited from earlier work; for elimination through the biliary system: predominantly renal elimination
[2] = cited from earlier work
[3] = Relaxivity measurements at 1.41T and 37 °C; assay type: physicochemical
Experimental: (§1) Relaxivity measurements were performed on a Bruker mq60 Minispec at 1.41T and 37 °C. Longitudinal (T1) relaxation times were measured using an inversion recovery experiment with 10 inversion times of duration ranging between 0.05 × T1 and 5 × T1. Transverse (T2) relaxation times were measured using a CPMG pulse sequence. Relaxivity (r1, r2) was determined from the slope of a plot of 1/T1,2 vs [Gd] for at least 4 concentrations of Gd(III) (data shown in Supplementary Figs. 93–110). The T2 relaxation times of ^17O at 11.7T were estimated from the full-width at half-height of the H2^17O resonance at temperatures ranging from 278 to 368K. Reduced relaxation rates (1/T2r) were calculated by taking the difference of 1/T2 measured in the presence and absence of Gd(III) and dividing by the mole fraction of coordinated water molecules, assuming q = 1. […] However, at the high magnetic field used, and because of the very-fast water exchange rates observed, there was negligible contribution of T1e, and the data were refit to a two-parameter model using the water exchange rate at 310K (τM) and enthalpy of activation for water exchange (ΔH^‡) as adjustable parameters. The Gd-O hyperfine coupling constant, A/ħ, was assumed to be -3.8 × 10^6 rad s^−1 [57], [58]. Samples were prepared in neat H2O adjusted and enriched with a small amount of H2^17O.

[4] = 17O NMR water exchange (residence time of water co-ligand); assay type: physicochemical; conditions: 17O NMR at 11.7T; for τM^310K, mean residence time of the water co-ligand at 310 K: q = 1 assumed
Experimental: as §1

[5] = Gd complexes biodistribution studies (ICP-MS); assay type: in vivo, BALB/c mice; conditions: 0.025 mmol/kg i.v.; for Gd biodistribution / elimination profile: 5-360 min post injection
From the text: Most commercially available Gd(III)-based MRI contrast agents are excreted rapidly and exclusively through the renal pathway. One of the few exceptions is an acyclic compound, Gd-EOB-DTPA, which has a mixed clearance (50% renal, 50% biliary) and is used for imaging of the liver and biliary system. Gd-BOPTA and MS-325 have predominantly renal elimination with <10% elimination through the biliary system. […] We illustrated with our studies that there is a significant variation in the biodistribution profiles despite the small structural differences of the chiral substituents (Supplementary Fig. 20). Gd biodistribution in BALB/c mice was measured by ICP-MS at 5, 15, 30, 60, 180 and 360 min following injection. […] Low levels of Gd(III) are present at 6 h post injection. […] The specific and unusual localisation of [GdL2]^− in the liver makes it a potential hepatobiliary-specific MRI contrast agent.
(§2) Gd concentrations were determined using an Agilent 8800-QQQ ICP-MS system. All samples were diluted with 0.1% Triton X-100 in 5% nitric acid. Lutetium internal standard was steadily introduced to the ICP-MS from an external source during the analysis. A linear calibration curve for each metal ranging from 0.1 ppb to 200 ppb was generated daily for the quantification.
Complexes [GdL1]^−, [GdL2]^− and [GdL5]^− were prepared by dissolving in saline solution, while [GdDOTA]^− (Dotarem) was diluted in saline solution. Eight-week-old male BALB/c mice (purchased from BioLASCO, Taiwan) each weighing approximately 25 g were administered with a single dose of 0.025 mmol/kg compound ([GdL1]^−, [GdL2]^−, [GdDOTA]^− and [GdL5]^−; 3 mice per compound per time point) in a 100 μl volume via lateral tail vein injection. The mice were then euthanized, and their blood collected by cardiac puncture at each time point (5, 15, 30, 60, 180 or 360 min post injection). A control group of 4 mice was treated with saline and killed at time point 0. The liver, lung, heart, kidneys, spleen and brain were removed from the animals and weighed. Gd content in tissue and blood samples was quantified via ICP-MS analysis. All experiments were performed in accordance with the NIH Guide for the Care and Use of Laboratory Animals and approved by the Institutional Animal Care and Use Committee of Massachusetts General Hospital or by the Department of Health of the Hong Kong Government and the Animal Subjects Ethics Sub-Committee of Hong Kong Polytechnic University.

[6] = Kinetic stability of Gd complexes monitored by RP-HPLC (acid, base, DTPA, DOTA, ZnCl2); assay type: physicochemical
From the text: The kinetic stability of GBCAs, which reflects the dissociation of the Gd ions from its chelate is used to predict the stability in vivo[10]. The proton-assisted dissociation and direct attack of the endogenous ions are regarded as two main pathways that induced the dissociation of the chelates. The inertness of our Gd(III) complexes was maintained up to 7 days after addition of 1000 equivalents of a competitive ligand, DTPA (Supplementary Fig. 7 & 8). […] The harshest condition tried was setting the complexes of [GdL2A]^−, [GdL2B]^− and [GdDOTA]^− in 1N HCl (Fig. 5, Supplementary Figs. 13 - 15).
Fig. […] Error bars for [GdL2A]^- and [GdL2B]^- refer to the standard error of mean (S.E.M.), statistical data fitting analysis (n = 3; s.e.m.)

[7] = In vivo dynamic T1-weighted MR imaging at 4.7T; design: species or system C57/Bl6 mice; conditions: 0.1 mmol per kg i.v., 4.7 tesla, n = 1
Experimental: Dynamic T1-weighted MR imaging at 4.7 tesla was performed with C57/Bl6 mice before, during, and after 0.1 mmol per kg injection of each compound (Fig. 7).
(§3) Imaging was performed at 4.7T using a small-bore animal scanner (Bruker Biospec). Pilot dynamic MRI studies were performed with [GdL1]^−, [GdL2A]^−, [GdL2B]^− and [GdL5]^−; n = 1 per compound. Six to eight weeks male C57/Bl6 mice were anaesthetised with isoflurane (1%–2%) and placed in a specially designed cradle with body temperature maintained at 37 °C. The tail vein was catherised for intravenous delivery of the contrast agent while the animal was positioned in the scanner. A pneumatic pillow was placed on the mouse to enable respiratory monitoring (SA Instruments), and the animal’s body temperature was maintained with warm air. The imaging protocol utilised a three-dimensional fast low angle shot (3D FLASH) with a […] flip angle, 9.00 ms repetition rate, 2.39 ms echo time, 4.8 cm × 2.4 cm × 2.4 cm field of view with a 0.3 mm isotropic resolution. Images were acquired with either 2 or 8 averages giving an acquisition time of 2 min or 8 min, respectively. Baseline images were acquired with both 2 and 8 averages, then the Gd complex (0.1 mmol per kg) was injected intravenously and the sequence with 2 averages was repeated for a period of 10 min to monitor blood clearance. At 10, 30, 45, 60, 75 and 90 min after probe injection, the sequence with 8 averages was repeated to monitor the clearance of contrast from the liver and kidneys. After imaging was performed, the mouse was removed from the scanner and euthanized at 2 h post injection and the tissues were harvested for Gd quantification by ICP-MS.

[8] = Ex vivo biodistribution 2 h post injection after MRI study (ICP-MS); assay type: in vivo, C57/Bl6 mice; conditions: 0.1 mmol per kg i.v.
Experimental: as §2, §3

O=C([O-])CN(CCN(CC(=O)[O-])CC(=O)[O-])CCN(CC(=O)[O-])C(COCc1ccccc1)C(=O)[O-].[Gd+3] (centres unmarked) [Gd-BOPTA]
elimination through the biliary system [1]: < 10%

C[C@H](C(=O)[O-])N1CCN([C@H](C)C(=O)[O-])CCN([C@H](C)C(=O)[O-])CCN([C@H](C)C(=O)[O-])CC1.[Gd+3] [Gd-DOTMA]
ΔH^‡ ([2]; SAP isomer): 12.8 ± 0.693 kcal/mol | τM^310K ([2]; SAP isomer): 156 ns | ΔH^‡ ([2]; TSAP isomer): 9.63 ± 0.526 kcal/mol | τM^310K ([2]; TSAP isomer): 26 ns

CCOc1ccc(C[C@@H](CN(CCN(CC(=O)[O-])CC(=O)[O-])CC(=O)[O-])N(CC(=O)[O-])CC(=O)[O-])cc1.[Gd+3].[Na+].[Na+] [Gd-EOB-DTPA]
biliary clearance share ([1]; mixed clearance): 50% | renal clearance share ([1]; mixed clearance): 50%

O=C([O-])CN1CCN(CC(=O)[O-])CCN(CC(=O)[O-])[C@@H](Cc2ccc([N+](=O)[O-])cc2)CN(CC(=O)[O-])CC1.[Gd+3] [Gd-NB-DOTA]
ΔH^‡ ([2]; Mix of isomers): 8.48 kcal/mol | τM^310K ([2]; Mix of isomers): 111 ns

C[C@H](C(=O)[O-])N1CCN([C@H](C)C(=O)[O-])CCN([C@H](C)C(=O)[O-])[C@@H](Cc2ccc([N+](=O)[O-])cc2)CN([C@H](C)C(=O)[O-])CC1.[Gd+3] [Gd-NB-DOTMA(S-RRR)]
ΔH^‡ ([2]; S-SSSS = SAP, S-RRR = TSAP): 6.62 kcal/mol | τM^310K ([2]; S-SSSS = SAP, S-RRR = TSAP): 9.4 ns

C[C@@H](C(=O)[O-])N1CCN([C@@H](C)C(=O)[O-])CCN([C@@H](C)C(=O)[O-])[C@@H](Cc2ccc([N+](=O)[O-])cc2)CN([C@@H](C)C(=O)[O-])CC1.[Gd+3] [Gd-NB-DOTMA(S-SSSS)]
ΔH^‡ ([2]; S-SSSS = SAP, S-RRR = TSAP): 6.31 kcal/mol | τM^310K ([2]; S-SSSS = SAP, S-RRR = TSAP): 77 ns

O=C([O-])CN(CCN(CC(=O)[O-])C[C@H](COP(=O)([O-])OC1CCC(c2ccccc2)(c2ccccc2)CC1)N(CC(=O)[O-])CC(=O)[O-])CC(=O)[O-].[Gd+3].[H+].[H+].[H+] [MS-325]
blood half-life [1]: unusually long | serum albumin binding [1]: extensive serum albumin binding | elimination through the biliary system [1]: < 10%

CC[C@@H]1CN(CC(=O)[O-])[C@H](CC)CN(CC(=O)[O-])[C@H](CC)CN(CC(=O)[O-])[C@H](CC)CN1CC(=O)[O-].[Gd+3] [[Gd(R)L2A]^−]
r1 relaxivity ([3]; 4.5% w/v HSA (1.4T)): 4.5 mM⁻¹ s⁻¹ | r1 relaxivity ([3]; Human Plasma (1.4T)): 4.6 mM⁻¹ s⁻¹ | r1 relaxivity ([3]; Water (1.4T)): 3.9 mM⁻¹ s⁻¹ | ΔH^‡, enthalpy change of activation of water exchange [4]: 7.89 ± 0.502 kcal/mol | τM^310K, mean residence time of the water co-ligand at 310 K [4]: 8.1 ± 0.4 ns

CC[C@@H]1CN(CC(=O)[O-])[C@H](CC)CN(CC(=O)[O-])[C@H](CC)CN(CC(=O)[O-])[C@H](CC)CN1CC(=O)[O-].[Gd+3] [[Gd(R)L2B]^−]
r1 relaxivity ([3]; 4.5% w/v HSA (1.4T)): 4.8 mM⁻¹ s⁻¹ | r1 relaxivity ([3]; Human Plasma (1.4T)): 4.9 mM⁻¹ s⁻¹ | r1 relaxivity ([3]; Water (1.4T)): 3.9 mM⁻¹ s⁻¹ | ΔH^‡, enthalpy change of activation of water exchange [4]: 2.87 ± 0.406 kcal/mol | τM^310K, mean residence time of the water co-ligand at 310 K [4]: 2.9 ± 0.1 ns

O=C([O-])CN1CCN(CC(=O)[O-])CCN(CC(=O)[O-])CCN(CC(=O)[O-])CC1.[Gd+3] [[GdDOTA]^−, reference compound]
r1 relaxivity ([3]; 4.5% w/v HSA (1.4T)): 4.1 mM⁻¹ s⁻¹ | r1 relaxivity ([3]; Human Plasma (1.4T)): 4.0 mM⁻¹ s⁻¹ | r1 relaxivity ([3]; Water (1.4T)): 3.2 mM⁻¹ s⁻¹ | ΔH^‡ ([2]; SAP isomer): 13.9 ± 0.598 kcal/mol | τM^310K ([2]; SAP isomer): 141 ns | ΔH^‡ ([2]; TSAP isomer): 10 ± 0.741 kcal/mol | τM^310K ([2]; TSAP isomer): 27 ns | Gd biodistribution / elimination profile [5]: rapid elimination from the body via the kidneys | Gd(III) present at 6 h post injection ([5]; ICP-MS): Low levels | half-life of the complex ([6]; 1N HCl, room temperature): < 25 h | half-life of the complex ([6]; 100 equivalents of zinc chloride at 50 °C): ~ 100 h

CC[C@H]1CN(CC(=O)[O-])[C@@H](CC)CN(CC(=O)[O-])[C@@H](CC)CN(CC(=O)[O-])[C@@H](CC)CN1CC(=O)[O-].[Gd+3] [[GdL2A]^−]
r1 relaxivity ([3]; 4.5% w/v HSA (1.4T)): 4.7 mM⁻¹ s⁻¹ | r1 relaxivity ([3]; Human Plasma (1.4T)): 4.7 mM⁻¹ s⁻¹ | r1 relaxivity ([3]; Water (1.4T)): 4.2 mM⁻¹ s⁻¹ | MR enhancement of liver and gall bladder [7]: very similar behaviour to [GdL2B]^− | Gd concentration in gall bladder [8]: 854 nmol Gd per gram tissue | Gd concentration in blood ([8]; listed as GdL2A): 0.49 nmol Gd per gram tissue | Gd concentration in gall bladder ([8]; listed as GdL2A): 854.21 nmol Gd per gram tissue | Gd concentration in heart ([8]; listed as GdL2A): 1.82 nmol Gd per gram tissue | Gd concentration in intestines ([8]; listed as GdL2A): 0.05 nmol Gd per gram tissue | Gd concentration in kidney ([8]; listed as GdL2A): 20.92 nmol Gd per gram tissue | Gd concentration in liver ([8]; listed as GdL2A): 10.47 nmol Gd per gram tissue | Gd concentration in lung ([8]; listed as GdL2A): 3.61 nmol Gd per gram tissue | Gd concentration in muscle ([8]; listed as GdL2A): 5.18 nmol Gd per gram tissue | Gd concentration in spleen ([8]; listed as GdL2A): 4.72 nmol Gd per gram tissue | Gd concentration in stomach ([8]; listed as GdL2A): 3.14 nmol Gd per gram tissue | Gd concentration in tail ([8]; listed as GdL2A): 2.13 nmol Gd per gram tissue | ΔH^‡, enthalpy change of activation of water exchange [4]: 10.3 ± 0.478 kcal/mol | τM^310K, mean residence time of the water co-ligand at 310 K [4]: 6.6 ± 0.4 ns | decomplexation ([6]; 0.1N NaOH, over 10 days): negligible decomplexation | decomplexation ([6]; 1N HCl, room temperature, after 487 h): almost no decomplexation | decomplexation ([6]; 1N HNO3, over 10 days): negligible decomplexation | decomplexation ([6]; 100 equivalents of zinc chloride at 50 °C, ~100 h): no obvious decomplexation | stability and interconversion ([6]; one equivalent of DOTA ligand in 1N HCl): no interconversion was observed

CC[C@H]1CN(CC(=O)[O-])[C@@H](CC)CN(CC(=O)[O-])[C@@H](CC)CN(CC(=O)[O-])[C@@H](CC)CN1CC(=O)[O-].[Gd+3] [[GdL2]^−]
Gd biodistribution / elimination profile [5]: mainly distributed in the liver | Gd(III) detected after 60 min (liver retention) ([5]; ICP-MS): negligible amounts
